# Source: the supplement of paper PMC10307832
# How the values were obtained:
# Test in all cases: relative viability (nuclei count vs DMSO), 5 days (fraction); higher = more cells survive
# [1] = compound: CN1C=C(C2=CC=CC=C21)/C=C\3/C4=C(C=CC=N4)NC3=O + CC1(C)CCC(c2ccc(Cl)cc2)=C(CN2CCN(c3ccc(C(=O)NS(=O)(=O)c4ccc(N[C@H](CCN5CCOCC5)CSc5ccccc5)c(S(=O)(=O)C(F)(F)F)c4)cc3)CC2)C1 [Navitoclax] (partner 0.5 µM)
# Outline: (§1)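 Each reported value is a median over duplicate plates. It expresses relative viability: treated-well nuclei count divided by vehicle-well nuclei count. Lung cancer cell lines in 1536-well plates were dosed by pin tool a day after seeding, alone with one drug or with a fixed anchor-drug dose plus five library-drug doses (not always all listed) in √10 steps, and nuclei were counted after 5 days.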
# Trametinib + Luminespib = compound: CC(=O)Nc1cccc(-n2c(=O)n(C3CC3)c(=O)c3c(Nc4ccc(I)cc4F)n(C)c(=O)c(C)c32)c1 [Trametinib] + CCNC(=O)c1noc(-c2cc(C(C)C)c(O)cc2O)c1-c1ccc(CN2CCOCC2)cc1 [Luminespib] (partner 0.01 µM)
# Outline: as §1
# Trametinib + AZD7762 = compound: CC(=O)Nc1cccc(-n2c(=O)n(C3CC3)c(=O)c3c(Nc4ccc(I)cc4F)n(C)c(=O)c(C)c32)c1 [Trametinib] + NC(=O)Nc1cc(-c2cccc(F)c2)sc1C(=O)N[C@H]1CCCNC1 [AZD7762] (partner 0.2 µM)
# Outline: as §1
# Trametinib + Alpelisib = compound: CC(=O)Nc1cccc(-n2c(=O)n(C3CC3)c(=O)c3c(Nc4ccc(I)cc4F)n(C)c(=O)c(C)c32)c1 [Trametinib] + Cc1nc(NC(=O)N2CCC[C@H]2C(N)=O)sc1-c1ccnc(C(C)(C)C(F)(F)F)c1 [Alpelisib] (partner 2 µM)
# Outline: as §1
Cell Line,relative viability ([1]; first compound 0.02 µM),relative viability ([1]; first compound 0.06325 µM),relative viability ([1]; first compound 0.6325 µM),relative viability ([1]; first compound 2 µM),relative viability (Trametinib + Luminespib; first compound 0.0025 µM),relative viability (Trametinib + Luminespib; first compound 0.007906 µM),relative viability (Trametinib + Luminespib; first compound 0.025 µM),relative viability (Trametinib + Luminespib; first compound 0.07906 µM),relative viability (Trametinib + Luminespib; first compound 0.25 µM),relative viability (Trametinib + AZD7762; first compound 0.0025 µM),relative viability (Trametinib + AZD7762; first compound 0.007906 µM),relative viability (Trametinib + AZD7762; first compound 0.025 µM),relative viability (Trametinib + AZD7762; first compound 0.07906 µM),relative viability (Trametinib + AZD7762; first compound 0.25 µM),relative viability (Trametinib + Alpelisib; first compound 0.0025 µM),relative viability (Trametinib + Alpelisib; first compound 0.007906 µM),relative viability (Trametinib + Alpelisib; first compound 0.025 µM),relative viability (Trametinib + Alpelisib; first compound 0.07906 µM),relative viability (Trametinib + Alpelisib; first compound 0.25 µM),relative viability ([1]; first compound 0.2 µM)
NCI-H1395,1.08,0.967,1.09,1.11,0.616,0.703,0.691,0.775,0.403,0.399,0.377,0.41,0.361,0.367,1.02,0.903,1.39,1.09,0.652,
NCI-H1437,1.08,1.08,1.18,1.19,1.12,0.923,0.709,0.627,0.602,1.13,0.981,0.625,0.466,0.454,0.908,0.342,0.22,0.219,0.208,1.18
NCI-H1651,0.955,0.969,1.05,1.15,0.866,0.736,0.749,0.791,0.654,0.454,0.427,0.352,0.439,0.186,0.901,0.864,0.775,0.597,0.66,1.24
NCI-H1666,1.19,0.883,0.761,0.542,0.95,0.912,0.717,0.72,0.573,0.726,0.735,0.669,0.637,0.665,0.697,0.501,0.465,0.331,0.306,0.879
NCI-H1734,0.817,0.82,0.798,0.83,0.208,0.169,0.173,0.149,0.15,0.476,0.451,,0.509,0.369,0.627,0.712,,0.631,0.444,
NCI-H1755,0.836,1,0.909,0.885,0.412,0.333,0.598,0.462,0.301,0.457,0.405,0.428,0.426,0.352,0.798,0.83,0.799,0.802,0.753,0.98
NCI-H1792,0.343,0.642,,0.496,0.399,0.348,0.294,0.286,0.238,0.682,0.552,0.24,0.26,0.133,0.644,0.53,0.537,0.382,0.255,0.529
NCI-H1793,0.425,0.415,1.05,0.934,0.304,0.159,0.142,0.173,0.17,0.44,0.466,0.252,0.335,0.264,0.578,0.457,0.28,0.425,0.29,0.267
NCI-H1915,0.823,0.8,0.772,0.801,0.823,0.55,0.297,0.204,0.123,0.702,0.715,0.405,0.365,0.218,1.06,0.906,0.6,0.528,0.254,0.805
NCI-H1944,1.11,1.01,1.09,1.13,0.624,0.489,0.429,0.377,0.22,0.511,0.39,0.344,0.366,0.311,0.716,0.603,0.532,0.463,0.325,
NCI-H1975,0.955,1.05,0.937,0.94,0.207,0.177,0.155,0.183,0.171,0.69,0.551,0.473,0.421,0.401,0.547,0.415,0.301,0.223,0.268,1.07
NCI-H1993,0.726,0.768,0.682,0.856,0.74,0.693,0.749,0.528,0.578,0.694,0.716,0.395,0.504,0.472,0.649,0.722,0.656,0.699,0.649,0.894
NCI-H2085,1.04,1.15,1.22,1.18,0.415,0.325,0.263,0.288,0.329,0.81,0.752,0.391,0.518,0.541,0.916,0.757,0.635,0.655,0.608,1.19
NCI-H2087,1.01,0.843,1.03,1.13,0.17,0.137,0.137,0.141,0.148,1.26,1.38,0.633,0.313,0.324,0.705,0.442,0.371,0.28,0.266,1.19
NCI-H2126,0.789,0.824,0.859,0.8,0.871,0.754,0.509,0.731,0.564,1.05,0.929,0.632,0.766,0.753,0.706,0.608,0.447,0.527,0.45,0.833
NCI-H2170,,0.604,0.543,0.541,0.58,0.749,0.399,0.559,0.431,0.878,0.84,,0.748,0.556,0.828,0.721,,0.669,0.638,0.527
